Source: US4665092A, “Styrene derivatives, their use as antiallergic agents and intemediate epoxides for their synthesis” (Ortho Pharmaceutical Corporation, priority 1985, dated 1987)

Experiment: Anti-allergic / anti-inflammatory activity of the invention compounds; the test is not specified (5-lipoxygenase inhibition in RBL-1 cells and active lung anaphylaxis in guinea-pigs are described)
Conditions: no IC50 or percent inhibition printed
Procedure: The compounds of the invention of formulae (I) and (II) may be used as pharmaceutical agents in the treatment of inflammation and/or allergic reactions. […] Such testing procedures were carried out on compounds of the invention as described below:
Rat basophilic leukemia cells (RBL-1) were grown in Eagle's Minimal Essential Medium containing 10% fetal calf serum, 5% calf serum, 1% glutamine and 50 mg/L gentamycin and were maintained at 37° C. in a atmosphere containing 5% CO2. Exponentially growing cells were harvested by centrifugation at 400xg for 10 minutes at 4° C. and were washed once with Dulbecco's phosphate buffered saline containing 0.87 mM CaCl2. The cells were resuspended in the same buffer at a concentration of 1.85×10^7 cells/ml. […]
In order to isolate the Δ5 -lipoxygenase product ^14 C-5-HETE that was formed from arachidonic acid, each assay tube was extracted once with 6 volumes of anhydrous diethyl ether. In most assays, the recovery of product was estimated by determining the total amount of radioactivity recovered after extraction. In the remaining assays the recovery of ^14 C-5-HETE was monitored by addition of trace quantities of ^3 H-5-HETE (New England Nuclear) prior to extraction. […] The amount of ^14 C-5-HETE presented was quantitated by liquid scintillation counting in Aquasol II (New England Nuclear) and corrected for recovery. […]

With O[C@@H](CCCCOC1CCCCO1)[C@@H](/C=C/c1ccccc1)Sc1ccccc1 (stereo partly drawn) [Example 1g, (3R,4S)-4-Hydroxy-1-phenyl-3-phenylthio-8-(2-tetrahydropyranyloxy)-1(E)-octene] the “activity of the compound (statement in words, figures not given)” value was “Particularly active”.

With CC(C)=CCC[C@](C)(O)[C@@H](/C=C\C=C\c1ccccc1)Sc1ccccc1 [Example 7, (5R,6S) 1-Phenyl-5-phenylthio-6-hydroxy-6,10-dimethylundeca-(1E,3Z,9)-triene Monoh ydrate] the “activity of the compound (statement in words, figures not given)” value was “Particularly active”.
